Experimental data from US8791128B2, “Compositions for treating or delaying the onset of hair loss” (University of Central Florida Research Foundation, Inc., priority 2008, dated 2014).
Entries after “also recorded” stand apart in the source; their conditions may differ.

Experiments:
[1] = Ames test by a third party; conditions: third party company
Text: (§1) U.S. Pat. Nos. 4,959,368; 5,976,523. One derivative of interest is heterocyclic pyrimidine molecule referred to herein as ‘NBI-18’ (2-piperadino-6-methyl-5-oxo-5,6-dihydro-(7H) pyrrolo-[3,4-d]pyrimidine maleate; Mwt. 349.54). […] U.S. Patent Pub 20030139410. The mechanism of action of NBI-18 is not known, although some evidence implies the activation of the MAPK (mitogen activated protein kinase) pathway, a cascade that is also activated by peptide growth factors. […] NBI-18 has been tested in isolated animal models—axon growth in mice and muscle regeneration in rats—with no evidence of mechanistic details relating to function. Mechanism of action studies to find the drug target, are planned as part of our ongoing research. Upon learning about the availability of NBI-18 family of molecules, it was hypothesized that the compounds may be involved in the proliferation process of Stem Cells and the inventors decided to examine the possible implication for genesis of Keratinocyte Stem Cells (KSCs) or possibly the human bulge cells which provide the niche for KSCs, in animal models.

rodent cortical neurons = conditions: cited from earlier work
[2] = system: BrdU positive cells of the epidermis; assay: Topical application study: BrdU immunohistochemistry of epidermis; format: in vivo, C57 BL/6 mice
Description: (§2) Based on the inventors' realizations, the decision was made to test NBI-18 in a topical application study to induce the genesis or re-growth of hair. Varying doses of NBI-18 [0.75 mg/ml, 1.5 mg/ml, 3.0 mg/ml, and control (50% ETOH)] was delivered in 5 ul drops to shaved locations on the back of C57 BL/6 mice. The varying doses were given 5 consecutive days and on day 4 and 5 BrdU (100 mg/kg, ip) was injected. […] NBI-18 has proven to produce a desired affect in rodent models that show a predominant re-growth of hair using the topical application of the small molecular pyrimidine compound known as NBI-18. We are hypothesizing that NBI-18 treatment will lead to greater cytogenesis and eventually lead to a commercial product that will eradicate hair loss. These studies will be further described in the Examples provided below.
In this study, the inventors determined a dose range where keratinogenesis occurs in healthy mice to help us learn about the fate of newly formed cells within the epidermis. […] In order for us to eliminate unnecessary anesthesia, our vehicle of delivery was 50% Ethanol (ETOH). NBI-18 was suspended in 50% ETOH using the concentrations of 0.75 mg/ml, 1.5 mg/ml, 3.0 mg/ml, and control (50% ETOH) respectively.
A. Two C57 BL/6 mice were selected for the topical application study of NBI-18. The mice were prepped by shaving four specific locations lateral/dorsal in a circular pattern. NBI-18 was delivered to the specified areas (right, counterclockwise from lowest to highest dose, then control) in concentrations of 1.5 mg/ml, 3.0 mg/ml, 6.0 mg/ml and control (50% ETOH) respectively. The solutions were applied to the center of these locations in a 5 ul dose for 5 consecutive days and on days 4 and 5 BrdU (100 mg/K, ip) was injected. On day 7 the mice were euthanized using a high dose pentobarbital (70 mg/kg, ip) and the treated epidermis was dissected and placed into 4% paraformaldehyde fixative for 48 hour
Immunohistochemistry of epidermis. Epidermal sections were mounted into square embedding molds with freezing medium (O.C.T. compound, Tissue Tek), sliced in 20 uM sections then mounted onto adhesive coated slides (Instrumedics, Inc) via tape transfer method. Slides were washed with PBS then placed in 2NHCL for 30 minutes to […]. Slides were then washed again with PBS, then blocked using 3% Donkey serum in PBST for 1 hour. Primary anti-body suspended in blocking solution used was anti-BrdU (sigma) at 1:1000 overnight in 4C. Slide were washed 3× then placed in secondary anti-body suspended in blocking solution, FITC (Jackson ImmunoResearch) at 1:500 for 2 hours at room temperature then washed with PBS. Slides were mounted using Vectashield with Dapi. […]

[3] = system: cells in the brain of rodents; assay: NBI-18 injections: cell proliferation and neurogenesis in rodent brain; format: in vivo
[4] = Absorption and half-life in rodents (HPLC analysis); format: in vivo, rat
Text: as §1

human NSCs = assay: Proliferation of human NSCs in culture; format: cell-based
hair re-growth = assay: Topical application study: hair re-growth on shaved skin; format: in vivo, C57 BL/6 mice; conditions: topical 0.75, 1.5, 3.0 mg/ml, 5 consecutive days
Description: as §2
B. Four C57 BL/6 mice were selected for the topical application study of NBI-18. The mice were prepped by shaving four specific locations lateral/dorsal in a circular pattern. NBI-18 was delivered to the specified areas (right, counterclockwise from lowest to highest dose, then control) in concentrations of 0.75 mg/ml, 1.5 mg/ml, and 3.0 mg/ml, and control (50% ETOH) respectively. The solutions were applied to the center of these locations in a 5 ul dose for 5 consecutive days and on days 4 and 5 BrdU (100 mg/K, ip) was injected. […]

[5] = Toxicity study (i.p., 7 days; rotarod, open field, postural reflex, forelimb placing); format: in vivo, C57 BL/6 mice; conditions: 100, 300, 1000 mg/kg/day i.p. for 7 days
Description: A total of 16 male C57 BL/6 mice (12 weeks old) weighing 25-30 g were used to investigate the toxicity of NBI-18. The mice were maintained on a 12-h light/dark cycle, and had free access to food and water through the study period. These animals were housed four per cage. In this study, animals were divided into four groups (four/group). Acute toxicity has been tested up to 1000 mg/kg. NBI-18 (0, 100, 300,1000 mg/kg/day, i.p.) was injected for 7 days and for the control group, the same volume of vehicle saline was injected. Bromodeoxyuridine (BrdU)(Sigma Chemical Co., St Louis, Mo.), was injected (100 mg/kg/day, i.p.) for the last three days (days 5-7). For behavioral testing, rotarod and open field tests were used to examine balance and coordination of mice before, during and after NBI-18 injection. Also, postural reflex and forelimb placing tests were performed to evaluate the neurological functions for the animals. All the animals were anesthetized with pentobarbital (i.p.) 48 h after the last BrdU injection and immediately per fused with 4% paraformaldehyde fixative. The brains were immediately dissected, post fixed for 24 h and processed for immunohistochemistry.

[6] = Extraction of NBI-18 from epidermis of treated mice; format: in vivo; conditions: 24 hours post-injection
Text: as §1

[7] = daily injections for five days, rodents

## CN1Cc2nc(N3CCCCC3)ncc2C1=O.O=C(O)/C=C\C(=O)O [NBI-18, 2-piperadino-6-methyl-5-oxo-5,6-dihydro-(7H) pyrrolo-[3,4-d]pyrimidine maleate]
[1]
  mutagenicity: not mutagenic; also recorded: no mutagenesis or toxicity
Rodent cortical neurons; TUNEL assays
  rate of apoptosis: reducing the rate of apoptosis
Rodent cortical neurons; bFGF, nerve growth factor, EGF, insulin-like growth factor
  activity in neuron culture: active primarily in the presence of various growth factors
Rodent cortical neurons
  survival of rodent cortical neurons: promoted the survival
[2]; Example 3A, topical 1.5, 3.0, 6.0 mg/ml, 5 ul, 5 days, FIG. 1
  newly developed (BrdU) cells versus control: mass increases of newly developed cells
[2]; Example 3A, topical 1.5, 3.0, 6.0 mg/ml, FIG. 1
  migration pattern of new cells: alignment towards migration patterns
[2]; topical 0.75, 1.5, 3.0 mg/ml in 50% ETOH
  dose dependence of the elevation in BrdU positive stained cells: did not demonstrate a dose dependent increase
[2]; topical 0.75, 1.5, 3.0 mg/ml in 50% ETOH, 5 ul, 5 consecutive days
  BrdU positive (proliferating) cells in comparison to control: abundant increase in proliferating cells; also recorded: vast increase; also recorded: dramatic elevation; also recorded: some varying levels of increase; also recorded: increases the number of BrdU positive cells
[3]; animal studies
  dose dependence of the increase in proliferation: dose dependent
[3]; daily injections for five days, at four weeks, young and aged rodents
  neurogenesis: stable neurogenesis
[3]; [7]
  pathological effects: no discernible pathological effects
  symptoms of toxicity: no symptoms of toxicity
[3]; injections 5 mg/kg, rodents
  proliferation of cells in the brain: increased proliferation
[4]; after intraperitoneal as well as oral administration, rodent studies
  absorption: absorbed well
[4]; general statement
  oral bioavailability: orally bioavailability
[4]; rat circulation, HPLC analysis
  t1/2: > 4 h
Human NSCs
  proliferation of human NSCs: stimulate the proliferation
Hair re-growth
  time to re-growth of hair near to its original length: ≤ 7 days
Hair re-growth; 5 ul, shaved skin
  hair re-growth in treated areas compared to control areas: visibly complete hair growth; also recorded: visible re-growth of hair; also recorded: actual hair re-growth
[5]
  behavioral or neurological changes: no immediate behavioral or neurological changes
  symptoms of toxicity: no symptoms of toxicity
[6]
  presence in epidermis: can be extracted
